Measured values as given in paper PMC12591170, “Glabridin‐Gold(I) Complex as a Novel Immunomodulatory Agent Targeting TrxR and MAPK Pathways for Synergistic Enhancement of Antitumor Immunity” (Advanced Science, 2025).

What was measured:
[1] = test system: purified TrxR; experiment: Purified TrxR activity assay (DTNB); type: biochemical; settings: 0.625-20 µM
Procedure: Different concentrations of complex 6d solution and 1.8 U purified TrxR were added to the wells (25 µL per well separately). Consequently, the reaction solution (20 mg mL^−1 BSA, 500 mM EDTA‐2Na, and 40 mg mL^−1 NADPH, diluted in a 1:1 mixture of PBS and water) was added to the 96 wells (225 µL per well). Finally, 25 mg mL^−1 DTNB solution was added (25 µL per well) and OD values were immediately measured at 405 nm. The linear growth at 405 nm was calculated to show the purified TrxR activity. Final concentrations of complex 6d were 0.625, 1.25, 2.5, 5, 10, 20 µM.

[2] = target: T1, TrxR (Homo sapiens, UniProt Q16881); experiment: Intracellular TrxR activity (kit, probe) and TrxR expression in HepG2; type: cell-based
T1 construct: endogenous in cells; host or cells: HepG2
T1 sequence (Q16881 151-649 limits assumed): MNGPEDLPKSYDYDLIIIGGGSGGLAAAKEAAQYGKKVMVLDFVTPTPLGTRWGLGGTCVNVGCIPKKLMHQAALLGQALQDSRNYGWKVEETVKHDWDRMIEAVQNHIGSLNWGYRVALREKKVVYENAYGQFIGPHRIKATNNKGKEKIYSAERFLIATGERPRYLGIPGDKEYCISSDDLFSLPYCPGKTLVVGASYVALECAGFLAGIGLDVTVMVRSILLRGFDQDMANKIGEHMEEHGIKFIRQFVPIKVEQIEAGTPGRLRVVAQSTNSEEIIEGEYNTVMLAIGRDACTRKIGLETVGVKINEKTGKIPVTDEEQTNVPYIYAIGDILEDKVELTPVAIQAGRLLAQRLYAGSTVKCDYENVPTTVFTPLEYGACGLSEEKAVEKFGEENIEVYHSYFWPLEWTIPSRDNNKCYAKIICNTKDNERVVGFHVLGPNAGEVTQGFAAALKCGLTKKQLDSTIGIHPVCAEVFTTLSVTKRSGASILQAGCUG
Procedure: 1 × 10^6 HepG2 cells were cultured in 6 cm culture dishes, and treated with DMF (0.1%), AF (4 µM) or different concentrations of 6d (2, 4, 8 µM) after cell adhesion. 24 h later, the intracellular TrxR activity was analyzed by the TrxR activity detection kit.
In addition, intracellular TrxR activity was detected by TrxR probe. 5 × 10^4 HepG2 cells were seeded in 12‐well plate. After 24 h, the complete medium was removed, and the each well was washed twice by phosphate buffer saline (PBS). 10 µM TrxR probe (dissolved in PBS) was added for 1 h incubation. Then, the probe was removed, and washing twice was performed by PBS. The fluorescence microscopy was applied to capture the cell images under the channel of FITC.
HepG2 cells were incubated in 6 cm culture dishes and treated with different complexes. The treated cells were lysed with lysis buffer (RIPA:PMSF:phosphatase inhibitor:protease inhibitor = 100:1:1:1). The lysed cells were further broken by sonication, and proteins were isolated by centrifugation. The protein concentrations were detected by BCA assay. 10% SDS PAGE gel was usually applied to separate the different kDa of proteins, and more than 200 kDa of proteins were separated using 8% SDS PAGE gel. After seperation, proteins were transferred onto polyvinylidene difluoride (PVDF) membranes. […] The target proteins’ bands were detected by the enhanced chemiluminescence (ECL) procedure.

[3] = test system: HepG2 cells; experiment: ROS levels assay (DHE, DCFH-DA); type: cell-based, human; settings: HepG2, 6 h, DHE and DCFH-DA probes
Procedure: HepG2 cells were seeded in 12‐well plate (5 × 10^4 cells per well). 4 mM N‐acetylcysteine (NAC) was applied for 1 h pretreatment. DMF (0.1%), AF (4 µM) or different concentrations of 6d (2, 4, 8 µM) were added in the wells for 6 h incubation. 10 µM DHE or DCFH‐DA (dissolved in DMEM) probes were applied for 30 min staining. The cells were photographed by the fluorescence microscopy after washing twice.

[4] = test system: HepG2 cells; experiment: DAMPs / ICD effect (CRT, HMGB1, ATP release); type: cell-based, human
Procedure: 6‐well plate was applied to incubate 2 × 10^5 HepG2 cells. […] After treatment, the liquid was collected for extracellular ATP release assay by ATP Assay kit.
HepG2 cells were incubated in 6 cm culture dishes and treated with different complexes. The treated cells were lysed with lysis buffer (RIPA:PMSF:phosphatase inhibitor:protease inhibitor = 100:1:1:1). The lysed cells were further broken by sonication, and proteins were isolated by centrifugation. The protein concentrations were detected by BCA assay. 10% SDS PAGE gel was usually applied to separate the different kDa of proteins, and more than 200 kDa of proteins were separated using 8% SDS PAGE gel. After seperation, proteins were transferred onto polyvinylidene difluoride (PVDF) membranes. The target proteins were labeled by various specific primary antibodies at 4 °C overnight. Then, the membranes were treated with anti‐rabbit or anti‐mouse secondary antibody for 2 h. Tris buffered saline with tween 20 (TBST) was applied to wash the membranes after each operation above. The target proteins’ bands were detected by the enhanced chemiluminescence (ECL) procedure.
5 × 10^4 HepG2 cells were treated with complexes in 24‐well plates for 24 h. Subsequently, cells were fixed with 4% paraformaldehyde. Various specific antibodies were added for incubation at 4 °C overnight after cells were permeabilized with Triton X‐100 (except for membrane proteins) and blocked with BSA. Then, the cells were incubated with fluorescently‐labeled secondary antibodies in darkness for 2 h. After that, DAPI was added to stain nuclear in darkness. PBS was applied for washing after each operation above (Tris buffered saline (TBS) was applied for washing if phosphorylated protein was analyzed). The cell images were captured by the fluorescence microscopy.

[5] = test system: immature DCs; experiment: DC maturation assay with medium of treated Hepa1-6 cells; type: cell-based, C57BL/6 mouse; settings: 24 h
Procedure: The monocytes were extracted from the leg bone marrow of a C57BL/6 mouse and incubated in the 1640 complete medium with rmGM‐CSF (20 ng mL^−1) and IL‐4 (20 ng mL^−1). The medium was replaced partially every other day, and immature DCs were differentiated after 7 days. […] The medium from treated Hepa1‐6 cells was collected and coincubated with the differentiated DCs for 24 h. After cells collection, the coincubated DCs were labeled with CD11c antibody, CD80 antibody and CD86 antibody. Then, the DC maturation ratio was analyzed by a flow cytometer.

[6] = test system: MAPK pathway (phosphorylated MEK1/2 and ERK1/2); experiment: In vivo MAPK pathway in tumor tissue; parameters: species or system C57BL/6 mice; settings: western blot, day 13
[7] = mouse
[8] = mouse, in vivo

CCn1ccn(CCCCCOc2ccc([C@@H]3COc4c(ccc5c4C=CC(C)(C)O5)C3)c(OCCCCCn3ccn(CC)[c]3=[Au][Br])c2)[c]1=[Au][Br] [6d]
purified TrxR activity [1]: suppressed TrxR activity | TrxR expression level (western blot) ([2]; HepG2, 24 h): did not downregulate TrxR expression levels | intracellular TrxR activity ([2]; HepG2, 24 h, 2, 4, 8 µM, TrxR probe and activity assay kit): suppressed TrxR activity | ROS level [3]: elevated ROS level | time required for ATP release ([4]; HepG2, 8 µM, ATP assay kit): 48 h | CRT expression (western blot) ([4]; HepG2, 24 h): CRT upregulation | HMGB1 expression (western blot) ([4]; HepG2, 24 h): HMGB1 downregulation | DC maturation [5]: significantly induced DC maturation | MAPK pathway activation (phosphorylation of MEK1/2 and ERK1/2) in tumor tissue [6]: significantly inhibited | metabolic stability in whole blood ([7]; 2 h): high metabolic stability | T1/2 ([7]; blood): ∞ | Percent Remaining (%) (Mean, n=2) 0 min ([7]; blood, 0 h): 100% | Percent Remaining (%) (Mean, n=2) 5 min ([7]; blood, 5 min): 98.8% | Percent Remaining (%) (Mean, n=2) 15 min ([7]; blood, 0.25 h): 107% | Percent Remaining (%) (Mean, n=2) 30 min ([7]; blood, 0.5 h): 103% | Percent Remaining (%) (Mean, n=2) 60 min ([7]; blood, 1 h): 103% | Percent Remaining (%) (Mean, n=2) 120 min ([7]; blood, 2 h): 108% | safe dose [8]: 5 mg/kg
